Source: PMC12582325 (Proceedings of the National Academy of Sciences of the …, 2025)
“And” between values parts separate entries of the source, which are not always exact repeats. Equal entries are not always repeated. “Also recorded” adds a separate entry of the source. Where two headings read alike, the source gives them in different places. Where a SMILES comes first, the peptide text is derived from it.

How the values were obtained:
Fo.Ste2 [1] = experiment: Yeast GPCR biosensor, cognate agonist together with candidate antagonist Cm; format: cell-based, Fusarium oxysporum; settings: Fo + Cm (Fo 0.5 μM, Cm 10 μM); Control mean 6141; mean of n = 4
Fo.Ste2 [2] = format: cell-based, Fusarium oxysporum
Fg.Ste2 [3] = format: cell-based, Fusarium graminearum; settings: YPL1 library cocultured with Fg.Ste2 strain GEN87, 20 h, 2 d diploid enrichment, NextSeq 500
Bc.Ste2 [4] = format: cell-based, Botrytis cinerea
Fg.Ste2 [5] = format: cell-based, Fusarium graminearum; settings: Fg + Cm (Fg 0.5 μM, Cm 10 μM); Control mean 6548; mean of n = 4
Bb.Ste2 [6] = format: cell-based, Beauveria bassiana; settings: Bb + Cm (Bb 0.0005 μM, Cm 10 μM); Control mean 6960; mean of n = 4
Bb.Ste2 [7] = format: cell-based, Beauveria bassiana
Bb.Ste2 [8] = format: cell-based, Beauveria bassiana; settings: YPL1 library cocultured with Bb.Ste2 strain GEN88, 20 h, 2 d diploid enrichment, NextSeq 500
Fo.Ste2 [9] = experiment: YeMaP Library-on-One: YPL1 pheromone library enrichment by mating, NGS; format: cell-based, Fusarium oxysporum; settings: YPL1 library cocultured with Fo.Ste2 strain GEN90, 20 h, 2 d diploid enrichment, NextSeq 500
Bc.Ste2 [10] = format: cell-based, Botrytis cinerea; settings: 10 μM
Bc.Ste2 [11] = format: cell-based, Botrytis cinerea; settings: for Bc.Ste2 (activation): with Bc agonist, normalised
Bb.Ste2 [12] = format: cell-based, Beauveria bassiana; remark: listed apart in the source
Fg.Ste2 [13] = tested on: Fg.Ste2
Bc.Ste2 [14] = format: cell-based, Botrytis cinerea; settings: YPL1 library cocultured with Bc.Ste2 strain GEN89, 20 h, 2 d diploid enrichment, NextSeq 500
Fg.Ste2 [15] = format: cell-based, Fusarium graminearum; settings: 10 μM; Control mean 6548; mean of n = 4
[16] = tested on: no_GPCR (negative control lacking a GPCR); format: cell-based, Saccharomyces cerevisiae; settings: SC + added peptide, individual replicates (n=3)
Fo.Ste2 [17] = format: cell-based, Fusarium oxysporum; remark: listed apart in the source
Hj.Hpr2 = format: cell-based, Hypocrea jecorina

CC(C)C[C@H](NC(=O)[C@H](CS)NC(=O)[C@@H](N)Cc1c[nH]c2ccccc12)C(=O)N[C@@H](CCCNC(=N)N)C(=O)N1CCC[C@H]1C(=O)NCC(=O)N[C@@H](CCC(N)=O)C(=O)N1CCC[C@H]1C(=O)N[C@@H](CS)C(=O)N[C@@H](Cc1c[nH]c2ccccc12)C(=O)O [Cm] (H-WCLRPGQPCW-OH; N-terminus and C-terminus assumed)
Sup.Fig.3B Fo.Ste2 biosensor response, group mean (Fo.Ste2 [1]): 1377500 | Fold decline in diploids containing Fo.Ste2 (Fo.Ste2 [2]): 0.2 fold | Mean 2 (SC + peptide), Fo share of diploids (Fo.Ste2 [2]): 0.087 | Mean Diff, SC vs. + peptide (Fo.Ste2 [2]; n = 3): 0.4046 | Enrichment after mating, reads per million minus library before coculture (Fg.Ste2 [3]): consistently lacking | Reduction in diploid formation (Bc.Ste2 [4]): two-fold reduction | Sup.Fig.3B Fg.Ste2 biosensor response, group mean (Fg.Ste2 [5]): 219822 | Sup.Fig.3B Bb.Ste2 biosensor response, group mean (Bb.Ste2 [6]): 1335000 | Activation of Bb.Ste2 biosensor, in words (Bb.Ste2 [7]): triggered the activation | Sup.Fig.3B Bb.Ste2 biosensor response, group mean (Bb.Ste2 [7]; 10 μM): 1237500 | Enrichment after mating, reads per million minus library before coculture (Bb.Ste2 [8]): +7,508 RPM | Enrichment after mating, reads per million minus library before coculture (Fo.Ste2 [9]): consistently lacking | Sup.Fig.3B Bc.Ste2 biosensor response, group mean (Bc.Ste2 [10]): 6819 | Effect on activation of Bc.Ste2 by Bc pheromone, in words (Bc.Ste2 [11]; 0.0005 μM Bc pheromone in combination with 10 μM peptide, four biological replicates, Fig. 2G): completely abolished | Sup.Fig.3B Bc.Ste2 biosensor response, group mean (Bc.Ste2 [11]; Bc + Cm (Bc 0.0005 μM, Cm 10 μM), Control mean 6719, mean of n = 4): 9961 | Bc.Ste2 + pheromones, biosensor response, group mean (Bc.Ste2 [11]; Bc + the named peptide, Bc alone mean 134.8, mean of n = 4): 1.794 | Hillslope (Bc.Ste2 [11]; Bc.Ste2 + Cm (antagonist), four-parameter fit, best-fit value): -289008 | Excess of the antagonist compared to the agonist at IC50 (Bc.Ste2 [11]; Bc.Ste2, 0.0005 μM Bc pheromone): 2,000 fold | Bc.Ste2 (activation) (Bc.Ste2 [11]; Concentration 1e-6, replicate 1): 49.9332 | Bc.Ste2 (activation) (Bc.Ste2 [11]; Concentration 1e-6, replicate 2): 46.5053 | Bc.Ste2 (activation) (Bc.Ste2 [11]; Concentration 1e-6, replicate 3): 51.6445 | Bc.Ste2 (activation) (Bc.Ste2 [11]; Concentration 1e-6, replicate 4): 48.6418 | Bc.Ste2 (activation) (Bc.Ste2 [11]; Concentration 5e-6, replicate 1): 5.491 | Bc.Ste2 (activation) (Bc.Ste2 [11]; Concentration 5e-6, replicate 2): 4.729 | Bc.Ste2 (activation) (Bc.Ste2 [11]; Concentration 5e-6, replicate 3): 4.1657 | Bc.Ste2 (activation) (Bc.Ste2 [11]; Concentration 5e-6, replicate 4): 2.595 | Bc.Ste2 (activation) (Bc.Ste2 [11]; Concentration 1e-5, replicate 1): 1.904 | Bc.Ste2 (activation) (Bc.Ste2 [11]; Concentration 1e-5, replicate 2): 1.546 | Bc.Ste2 (activation) (Bc.Ste2 [11]; Concentration 1e-5, replicate 3): 1.924 | Bc.Ste2 (activation) (Bc.Ste2 [11]; Concentration 1e-5, replicate 4): 1.801 | Bc.Ste2 (activation) (Bc.Ste2 [11]; Concentration 1.00E-07, replicate 1): 86.3218 | Bc.Ste2 (activation) (Bc.Ste2 [11]; Concentration 1.00E-07, replicate 2): 95.1098 | Bc.Ste2 (activation) (Bc.Ste2 [11]; Concentration 1.00E-07, replicate 3): 89.2984 | Bc.Ste2 (activation) (Bc.Ste2 [11]; Concentration 1.00E-07, replicate 4): 97.6612 | Bc.Ste2 (activation) (Bc.Ste2 [11]; Concentration 1.00E-08, replicate 1): 96.9525 | Bc.Ste2 (activation) (Bc.Ste2 [11]; Concentration 1.00E-08, replicate 2): 96.5273 | Bc.Ste2 (activation) (Bc.Ste2 [11]; Concentration 1.00E-08, replicate 3): 99.5039 | Bc.Ste2 (activation) (Bc.Ste2 [11]; Concentration 1.00E-08, replicate 4): 98.7952 | Bc.Ste2 (activation) (Bc.Ste2 [11]; Concentration 1.00E-09, replicate 1): 101.063 | Bc.Ste2 (activation) (Bc.Ste2 [11]; Concentration 1.00E-09, replicate 2): 96.9525 | Bc.Ste2 (activation) (Bc.Ste2 [11]; Concentration 1.00E-09, replicate 3): 99.9291 | Bc.Ste2 (activation) (Bc.Ste2 [11]; Concentration 1.00E-09, replicate 4): 101.063 | Bc.Ste2 (activation) (Bc.Ste2 [11]; Concentration 5.00E-07, replicate 1): 78.8094 | Bc.Ste2 (activation) (Bc.Ste2 [11]; Concentration 5.00E-07, replicate 2): 64.2098 | Bc.Ste2 (activation) (Bc.Ste2 [11]; Concentration 5.00E-07, replicate 3): 79.0928 | Bc.Ste2 (activation) (Bc.Ste2 [11]; Concentration 5.00E-07, replicate 4): 82.7782 | Bc.Ste2 (activation) (Bc.Ste2 [11]; Concentration 5.00E-08, replicate 1): 94.4011 | Bc.Ste2 (activation) (Bc.Ste2 [11]; Concentration 5.00E-08, replicate 2): 98.7952 | Bc.Ste2 (activation) (Bc.Ste2 [11]; Concentration 5.00E-08, replicate 3): 96.9525 | Bc.Ste2 (activation) (Bc.Ste2 [11]; Concentration 5.00E-08, replicate 4): 98.7952 | Mean 2 (SC + peptide), Bb share of diploids (Bb.Ste2 [12]): 0.01767 | barcode qPCR of diploids, Bb.Ste2 x Fo.Pheromone (Bb.Ste2 [12]): 0.04 and 0.041 and 0.037 | barcode qPCR of diploids, Bb.Ste2 x no_Pheromone (Bb.Ste2 [12]): 0.037 and 0.028 and 0.049 | Mean Diff, SC vs. + peptide (Bb.Ste2 [12]; n = 3): 0.02891 | barcode qPCR of diploids, Fg.Ste2 x Hj.Pheromone (Fg.Ste2 [13]; SC + added peptide, individual replicates (n=3), SC alone: 0.003, 0.004, 0.001): 0.028 and 0.017 and 0.029 | barcode qPCR of diploids, Fg.Ste2 x Fo.Pheromone (Fg.Ste2 [13]; SC + added peptide, individual replicates (n=3), SC alone: 0.005, 0.005, 0.013): 0.014 and 0.066 and 0.033 | barcode qPCR of diploids, Fg.Ste2 x no_Pheromone (Fg.Ste2 [13]; SC + added peptide, individual replicates (n=3), SC alone: 0.012, 0.001, 0.003): 0 and 0.143 and 0.133 | barcode qPCR of diploids, Fg.Ste2 x Bb.Pheromone (Fg.Ste2 [13]; SC + added peptide, individual replicates (n=3), SC alone: 0.012, 0.009, 0.006): 0.032 and 0.042 and 0.028 | barcode qPCR of diploids, Fg.Ste2 x Fg.Pheromone (Fg.Ste2 [13]; SC + added peptide, individual replicates (n=3), SC alone: 0.206, 0.237, 0.235): 0.441 and 0.282 and 0.373 | Fold increase in diploids containing Fg.Ste2 (Fg.Ste2 [13]; consortium in SC media, 10 μM external peptide, three biological replicates): 2.2 fold | Enrichment after mating, reads per million minus library before coculture (Bc.Ste2 [14]): consistently lacking | Sup.Fig.3B Fg.Ste2 biosensor response, group mean (Fg.Ste2 [15]): 14826 | barcode qPCR of diploids, no_GPCR x Fg.Pheromone ([16]; SC alone: 0, 0, 0): 0 and 0.032 and 0.007 | barcode qPCR of diploids, no_GPCR x Hj.Pheromone ([16]; SC alone: 0, 0, 0): 0 (2×) and 0.052 | barcode qPCR of diploids, no_GPCR x Bb.Pheromone ([16]; SC alone: 0, 0, 0.004): 0 (2×) and 0.005 | barcode qPCR of diploids, no_GPCR x Fo.Pheromone ([16]; SC alone: 0, 0, 0.007): 0.005 and 0 (2×) | barcode qPCR of diploids, no_GPCR x no_Pheromone ([16]; SC alone: 0.001, 0.001, 0): 0.027 and 0.026 and 0.002 | Activation of Fo.Ste2 biosensor, in words (Fo.Ste2 [17]): triggered the activation; also recorded: agonists for Fo.Ste2 | Hillslope (Fo.Ste2 [17]): 1.276 | logEC50 (Fo.Ste2 [17]): -6.973 | Sup.Fig.3B Fo.Ste2 biosensor response, group mean (Fo.Ste2 [17]; 10 μM): 1362500 | Mean 2 (SC + peptide), Hj share of diploids (Hj.Hpr2): 0.004151 | barcode qPCR of diploids, Hj.HPR2 x Bb.Pheromone (Hj.Hpr2): 0 | barcode qPCR of diploids, Hj.HPR2 x Fg.Pheromone (Hj.Hpr2): 0 | barcode qPCR of diploids, Hj.HPR2 x no_Pheromone (Hj.Hpr2): 0 | Mean Diff, SC vs. + peptide (Hj.Hpr2; n = 3): -0.002114
